In ChEMBL document CHEMBL3856260, “A synergistic antitumor effect of polyphyllin I and formosanin C on hepatocarcinoma cells” (Bioorg Med Chem Lett, 2016):
Active and inactive are the calls of the source. No cut-off for these calls is given here.

Experiments:
HepG2 [1] = experiment: Induction mitochondrial membrane potential changes in human HepG2 cells at 1 uM after 24 hrs by rhodamine 123 staining-based flow cytometry in presence of polyphyllin I (reference value: 23.8+/-2.3%); format: functional
HepG2 [2] = experiment: Induction mitochondrial membrane potential changes in human HepG2 cells at 1 uM after 24 hrs by rhodamine 123 staining-based flow cytometry (reference value: 23.8+/-2.3%); format: functional
[3] = Cell cycle arrest in human HepG2 cells assessed as accumulation at G2 phase at 1 uM after 24 hrs by propidium iodide staining-based flow cytometry(reference value: 2.04%); format: functional
HepG2 [4] = experiment: Induction of nuclear fragmentation in human HepG2 cells at 1 uM after 24 hrs by Hoechst 33258 staining-based fluorescence microscopic analysis; format: functional, cell-based
[5] = Cytotoxicity against human Bel7402 cells assessed as combination index at ED50 using 1:1 compound to polyphyllin I incubated for 24 hrs by MTT assay; format: functional, Bel-7402
[6] = Induction of apoptosis in human HepG2 cells assessed as upregulation of caspase3 level at 1 uM incubated for 24 hrs by Western blot analysis in presence of polyphyllin I; format: functional, cell-based
[7] = Cell cycle arrest in human HepG2 cells assessed as accumulation at G1 phase at 1 uM after 24 hrs by propidium iodide staining-based flow cytometry(reference value: 55.62%); format: functional
[8] = Cytotoxicity against human HepG2 cells assessed as combination index at ED75 using 1:1 compound to polyphyllin I incubated for 24 hrs by MTT assay; format: functional
HepG2 [9] = experiment: Induction of apoptosis in human HepG2 cells assessed as downregulation of NF-kappaB […] level at 1 uM incubated for 24 hrs by RT-PCR analysis in presence of polyphyllin I; format: functional, cell-based
HepG2 [10] = experiment: Decrease in CDK2 level in human HepG2 cells at 1 uM incubated for 24 hrs by Western blot analysis in presence of polyphyllin I; format: functional, cell-based
[11] = Suppression of MMP9 expression in human HepG2 cells at 1 uM after 24 hrs by Western blot analysis in presence of polyphyllin I; format: functional, cell-based
[12] = Induction of apoptosis in human HepG2 cells assessed as upregulation of Bax level at 1 uM incubated for 24 hrs by Western blot analysis in presence of polyphyllin I; format: functional, cell-based
[13] = Cytotoxicity against human Bel7402 cells assessed as combination index at ED90 using 1:1 compound to polyphyllin I incubated for 24 hrs by MTT assay; format: functional, Bel-7402
HepG2 [14] = experiment: Induction of Bax translocation from cytosol to mitochondria in human HepG2 cells by Western blot analysis in presence of polyphyllin I; format: functional, cell-based
HepG2 [15] = experiment: Induction of apoptosis in human HepG2 cells at 1 uM after 24 hrs by propidium iodide staining-based flow cytometry in presence of PPI (reference value: 3.01%); format: functional
[16] = Cytotoxicity against human HepG2 cells assessed as combination index at ED30 using 1:1 compound to polyphyllin I incubated for 24 hrs by MTT assay; format: functional
HepG2 [17] = experiment: Induction of chromatin compaction in human HepG2 cells at 0.5 uM after 24 hrs by Hoechst 33258 staining-based fluorescence microscopic analysis in presence of polyphyllin I; format: functional, cell-based
HepG2 [18] = experiment: Induction of apoptosis in human HepG2 cells assessed as downregulation of Bcl2 mRNA level at 1 uM incubated for 24 hrs by RT-PCR analysis in presence of polyphyllin I; format: functional, cell-based
[19] = Cell cycle arrest in human HepG2 cells assessed as accumulation at S phase at 1 uM after 24 hrs by […] staining-based flow cytometry in presence of PPI (reference value: 42.33%); format: functional
HepG2 [20] = experiment: Induction of chromatin compaction in human HepG2 cells at 1 uM after 24 hrs by Hoechst 33258 staining-based fluorescence microscopic analysis; format: functional, cell-based
[21] = Induction of apoptosis in human HepG2 cells assessed as upregulation of p53 level at 1 uM incubated for 24 hrs by Western blot analysis in presence of polyphyllin I; format: functional, cell-based
[22] = Cytotoxicity against human HepG2 cells assessed as combination index at ED50 using 1:1 compound to polyphyllin I incubated for 24 hrs by MTT assay; format: functional
[23] = Induction of apoptosis in human HepG2 cells assessed as upregulation of p53 mRNA level at 1 uM incubated for 24 hrs by RT-PCR analysis in presence of polyphyllin I; format: functional, cell-based
HepG2 [24] = experiment: Decrease in CDK2 level in human HepG2 cells at 1 uM incubated for 24 hrs by Western blot analysis in presence of polyphyllin relative to relative to polyphyllin I alone treatment; format: functional, cell-based
HepG2 [25] = experiment: Induction of Bax translocation from cytosol to mitochondria in human HepG2 cells by Western blot analysis; format: functional, cell-based
[26] = Cytotoxicity against human Bel7402 cells after 24 hrs by MTT assay; format: functional, cell-based; settings: Bel-7402, 24 h
HepG2 [27] = experiment: Decrease in cyclin E level in human HepG2 cells at 1 uM incubated for 24 hrs Western blot analysis in presence of polyphyllin I; format: functional, cell-based
[28] = Cell cycle arrest in human HepG2 cells assessed as accumulation at G1 phase at 1 uM after 24 hrs by propidium iodide staining-based flow cytometry in presence of PPI (reference value: 55.62%); format: functional
[29] = Cell cycle arrest in human HepG2 cells assessed as accumulation at S phase at 1 uM after 24 hrs by propidium iodide staining-based flow cytometry(reference value: 42.33%); format: functional
[30] = Cytotoxicity against human HepG2 cells after 24 hrs by MTT assay; format: functional, cell-based; settings: HepG2, 24 h
[31] = Cytotoxicity against human HepG2 cells assessed as combination index at ED90 using 1:1 compound to polyphyllin I incubated for 24 hrs by MTT assay; format: functional
[32] = Cell cycle arrest in human HepG2 cells assessed as accumulation at G2 phase at 1 uM after 24 hrs by propidium iodide staining-based flow cytometry in presence of PPI (reference value: 2.04%); format: functional
[33] = Suppression of MMP9 expression in human HepG2 cells assessed as reduction in enzyme activity at 1 uM after 24 hrs by zymographic analysis in presence of polyphyllin I; format: functional, cell-based
HepG2 [34] = experiment: Induction of cytochrome c release in human HepG2 cells by Western blot analysis; format: functional, cell-based
HepG2 [35] = experiment: Increase in p21 mRNA level in human HepG2 cells at 1 uM incubated for 24 hrs by RT-PCR analysis in presence of polyphyllin I relative to formosanin C alone treatment; format: functional, cell-based
[36] = Induction of apoptosis in human HepG2 cells assessed as upregulation of caspase3 mRNA level at 1 uM incubated for 24 hrs by RT-PCR analysis in presence of polyphyllin I; format: functional, cell-based
HepG2 [37] = experiment: Change in PCNA mRNA level in human HepG2 cells at 1 uM incubated for 24 hrs by RT-PCR analysis in presence of polyphyllin I relative to formosanin C alone treatment; format: functional, cell-based
HepG2 [38] = experiment: Induction of nuclear fragmentation in human HepG2 cells at 0.5 uM after 24 hrs by Hoechst 33258 staining-based fluorescence microscopic analysis in presence of polyphyllin I; format: functional, cell-based
HepG2 [39] = experiment: Change in PCNA mRNA level in human HepG2 cells at 1 uM incubated for 24 hrs by RT-PCR analysis in presence of polyphyllin I relative to polyphyllin I alone treatment; format: functional, cell-based
[40] = Cytotoxicity against human Bel7402 cells assessed as combination index at ED75 using 1:1 compound to polyphyllin I incubated for 24 hrs by MTT assay; format: functional, Bel-7402
HepG2 [41] = experiment: Increase in p21 level in human HepG2 cells at 1 uM incubated for 24 hrs by Western blot analysis in presence of polyphyllin I; format: functional, cell-based
HepG2 [42] = experiment: Decrease in cyclin E mRNA level in human HepG2 cells at 1 uM incubated for 24 hrs by RT-PCR analysis in presence of polyphyllin I relative to formosanin C alone treatment; format: functional, cell-based
HepG2 [43] = experiment: Induction of apoptosis in human HepG2 cells at 1 uM after 24 hrs by propidium iodide staining-based flow cytometry(reference value: 3.01%); format: functional
[44] = Cytotoxicity against human Bel7402 cells assessed as combination index at ED30 using 1:1 compound to polyphyllin I incubated for 24 hrs by MTT assay; format: functional, Bel-7402
[45] = Induction of apoptosis in human HepG2 cells assessed as upregulation of Bax mRNA level at 1 uM incubated for 24 hrs by RT-PCR analysis in presence of polyphyllin I; format: functional, cell-based
HepG2 [46] = experiment: Induction of cytochrome c release in human HepG2 cells by Western blot analysis in presence of polyphyllin I; format: functional, cell-based
HepG2 [47] = experiment: Antimigratory activity in human HepG2 cells at 1 uM after 24 hrs by wound healing assay in presence of polyphyllin I; format: functional, cell-based

## C[C@@H]1CC[C@@]2(OC1)O[C@H]1C[C@H]3[C@@H]4CC=C5C[C@@H](O[C@@H]6O[C@H](CO)[C@@H](O[C@@H]7O[C@@H](C)[C@H](O[C@@H]8O[C@@H](C)[C@H](O)[C@@H](O)[C@H]8O)[C@@H](O)[C@H]7O)[C@H](O)[C@H]6O[C@@H]6O[C@@H](C)[C@H](O)[C@@H](O)[C@H]6O)CC[C@]5(C)[C@H]4CC[C@]3(C)[C@H]1[C@@H]2C [PENNOGENIN RAHAMNOSYL CHACOTRIOSIDE]
HepG2 [1]
  Activity: 40.6%
HepG2 [2]
  Activity: 32.6%
[3]
  Activity: 2.74%
HepG2 [4]
  Activity: Active
[5]
  CI: 0.58
[6]
  Activity: Active
[7]
  Activity: 60.9%
[8]
  CI: 0.56
HepG2 [9]
  Activity: Active
HepG2 [10]
  Activity: Active
[11]
  Activity: Active
[12]
  Activity: Active
[13]
  CI: 0.46
HepG2 [14]
  Activity: Active
HepG2 [15]
  Activity: 7.52%
[16]
  CI: 0.62
HepG2 [17]
  Activity: Active
HepG2 [18]
  Activity: Active
[19]
  Activity: 28.7%
HepG2 [20]
  Activity: Active
[21]
  Activity: Active
[22]
  CI: 0.58
[23]
  Activity: Active
HepG2 [24]
  Activity: Active
HepG2 [25]
  Activity: Active
[26]
  IC50: 4.36 µM
HepG2 [27]
  Activity: Active
[28]
  Activity: 68.7%
[29]
  Activity: 36.4%
[30]
  IC50: 3.76 µM
[31]
  CI: 0.54
[32]
  Activity: 2.63%
[33]
  Activity: Active
HepG2 [34]
  Activity: Active
HepG2 [35]
  Activity: Active
[36]
  Activity: Active
HepG2 [37]
  Activity: Active
HepG2 [38]
  Activity: Active
HepG2 [39]
  Activity: Active
[40]
  CI: 0.52
HepG2 [41]
  Activity: Active
HepG2 [42]
  Activity: Active
HepG2 [43]
  Activity: 6.96%
[44]
  CI: 0.67
[45]
  Activity: Active
HepG2 [46]
  Activity: Active
HepG2 [47]
  Activity: Active
